Test results: patent US9945845B2, “Methods of screening using amphibians” (priority 2009, dated 2018)
“Also recorded” adds a separate entry of the source. Where a name gives a salt, the structure may show the parent alone. Read-outs that look alike come from different tables or passages of the source.

What was measured:
[1] = test system: Xenopus embryos; conditions: for Lethality: — = no stage of lethality given; for Type of edema Ventral: ‡ = edemas also detected in the gut; for Onset (NF): onset of edema; for scored in the phenotypic Xenopus screens: known antiangiogenic compounds; for Type of edema Periocular: * = causing bulging eyes, # = bilateral, causing narrow-set eyes
How it was run: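 Stage 31 (37 hpf) Xenopus embryos, five per well, exposed to 20 µM compound in 1% DMSO at 23 °C for 4 days. Edema, lethality and other external phenotypes were scored daily by two investigators at stages 39, 41, 45 and 47.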

[2] = test system: blood vessel development and/or lymphangiogenesis in Xenopus embryos; assay type: in vivo, Xenopus laevis; conditions: for lymph vessel development phenotype (vegfr3 expression, in words): 20 μM from stage 31, fixed at stage 42; for ALH phenotype: anterior lymph heart; for ALS phenotype: anterior lymph sac; for PLV phenotype: posterior lymph vessels
How it was run: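 Albino Xenopus embryos treated at 20 μM final (from 10-mM DMSO stocks) in screening medium, 7 per well, from stage 31 (37 hpf) to stage 35/36 (50 hpf) or 42 (80 hpf). Fixed in 4% paraformaldehyde and scored by whole-mount in situ hybridization: vasculogenesis and intersomitic vein angiogenesis at stage 35/36, lymph vessel development at stage 42.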

[3] = test system: HUVEC; test: HUVEC cell proliferation assay; assay type: cell-based, human; conditions: for activity at 10 µM: Homo sapiens, HUVEC, 48 h
Description: (§1) Human umbilical vein endothelial cells (HUVEC) were purchased from PromoCell. […] HUVEC and LEC were cultured in endothelial basal medium EBM (Cambrex) supplemented with 20% fetal bovine serum (Invitrogen), antibiotic-antimycotics (100 U/ml penicillin, 100 μg/ml streptomycin, 250 ng/ml amphotericin; Invitrogen). 2 mM L-glutamine (Invitrogen), 10 μg/ml hydrocortisone (Fluka) and 25 μg/ml N^6,2′-O-dibutyryladenosine 3′,5′-cyclic monophosphate sodium salt (Fluka) for up to eleven passages.
(§2) The intensity of fluorescence, which is proportional to the number of viable cells, was measured using a microplate reader (SpectraMax Gemini EM; Molecular Devices). The chemical treatments were performed in five replicates.
(§3) The cell proliferation assays were performed by treating the endothelial cell cultures with compounds at a screening dose of 10 μM in 0.1% DMSO for 48 hours (FIG. 6a; Table 10).

[4] = test system: LEC; test: LEC cell proliferation assay; assay type: cell-based, human; conditions: for activity at 10 µM: Homo sapiens, 48 h
Description: as §1, §2, §3

[5] = test system: HUVEC; test: HUVEC tube formation assay; assay type: cell-based, human; conditions: Homo sapiens, HUVEC
Description: as §1
(§4) The effect of the selected chemicals on the formation of tube-like structures was performed as follows. […] After overnight incubation at 37° C. the treated cell cultures were fixed with 4% paraformaldehyde. Each chemical treatment was performed in triplicate and the experiment was repeated at least three times. Three representative images of hotspots with tube-like structures were taken per well using a digital camera (AxioCam MRm, Carl Zeiss) mounted on an inverted microscope (Axiovert 200M, Carl Zeiss). The length of the tube-like structures was measured using the IPLab software (BD Biosciences). For each experimental condition, results are represented as average total tube length (μm) per area (three image fields).
(§5) The effects of the selected compounds on endothelial tube formation was assessed after over treatment of LEC and HUVEC cultures at a compound concentration of 1 μM in 0.1% DMSO. The length of the tube-like structures was measured using the IPLab software.

[6] = test system: LEC; test: cells; assay type: cell-based, human; conditions: for activity at 1 µM: Homo sapiens
Description: as §1, §4, §5

[7] = test system: transgenic zebrafish expressing a fluorescent vascular reporter gene; conditions: Tran et al., 2007, cited from earlier work; for penetration of embryos: highly hydrophilic compounds
[8] = compounds causing edema, 20 μM, 1% DMSO, treatment from stage 31, scored to stage 47
[9] = 20 μM, 1% DMSO, treatment from stage 31, Nieuwkoop & Faber stage
[10] = 10 μM in 0.1% DMSO, 48 hours, read-out: HUVEC proliferation
[11] = 10 μM in 0.1% DMSO, 48 hours, read-out: LEC proliferation
[12] = 1 μM in 0.1% DMSO, overnight, read-out: HUVEC tube formation
[13] = 1 μM in 0.1% DMSO, read-out: HUVEC tube formation (tube length)
[14] = 1 μM in 0.1% DMSO, overnight, read-out: LEC tube formation
[15] = 1 μM in 0.1% DMSO, read-out: LEC tube formation (tube length)
[16] = intersomitic vessels, Xenopus embryos
[17] = posterior cardinal vein, Xenopus embryos
[18] = vitelline vein network, Xenopus embryos

| SMILES | Lethality (NF) [1, 8] | Type of edema Pericordial ([1]; embryonic stage) | Lethality ([1]; embryonic stage) | Type of edema Ventral ([1]; embryonic stage) | Onset (NF) [1, 9] | activity at 10 µM [3, 10] [%] | activity at 10 µM [4, 11] [%] | activity at 1 µM [5, 12] [%] | activity at 1 µM [5, 13] [%] | activity at 1 µM [6, 14] [%] | activity at 1 µM [6, 15] [%] | ISV phenotype [2, 16] | PCV phenotype [2, 17] | VVN phenotype [2, 18] | further results |
| --- | --- | --- | --- | --- | --- | --- | --- | --- | --- | --- | --- | --- | --- | --- | --- |
| COC(=O)C1=C(C)NC(C)=C(C(=O)OCCN(C)Cc2ccccc2)C1c1cccc([N+](=O)[O-])c1 (centres unmarked) [Nicardipine hydrochloride] | 45 NF | 41/42 | 45 embryonic stages according to Nieuwkoop and Faber (NF) | 41/42 | 41/42 | 85 to 115 | 85 to 115 | 85 to 115 | 85 to 115 | 85 to 115 | 85 to 115 |  |  |  | lymph vessel development phenotype (vegfr3 expression, in words) ([2]; hydrochloride): inhibiting preferentially lymphatic vascular development; also recorded: discontinuatous, dysplastic lymphatic vessels; Blood vessel phenotype ([2]; Xenopus embryos): normal; ALH phenotype ([2]; Xenopus embryos): dysplastic; ALS phenotype ([2]; Xenopus embryos): dysplastic; PLV phenotype ([2]; Xenopus embryos): hypoplastic |
| COC(=O)Nc1nc2ccc(C(=O)c3cccs3)cc2[nH]1 [Nocodazole] | 33/34 | 33/34 | 33/34 |  | 33/34 | 65 to 82 | 65 to 82 | < 50 | < 35 | < 50 | < 35 | impaired | hypoplastic | hypoplastic | blood vessel development phenotype (apj expression, in words) ([2]; 20 μM from stage 31, fixed at stage 35/36): interfered with blood vessel vasculogenesis and PCV assembly |
| COc1cc([C@@H]2c3cc4c(cc3[C@H](O)[C@H]3COC(=O)[C@H]23)OCO4)cc(OC)c1OC [Podophyllotoxin] | 41/42 | 39/40 | 41/42 |  | 39/40 |  |  |  |  |  |  | impaired | hypoplastic | hypoplastic | activity at 10 µM ([3]; read-out: HUVEC proliferation, 10 μM in 0.1% DMSO, 48 hours): 65 to 82%; activity at 10 µM ([4]; read-out: LEC proliferation, 10 μM in 0.1% DMSO, 48 hours): 65 to 82%; activity at 1 µM ([5]; read-out: HUVEC tube formation): < 50%; activity at 1 µM ([5]; read-out: HUVEC tube formation (tube length)): < 35%; activity at 1 µM ([6]; read-out: LEC tube formation): < 50%; activity at 1 µM ([6]; read-out: LEC tube formation (tube length)): < 35% |
| Cc1cc(C)c(C=C2C(=O)Nc3ccccc32)[nH]1 [SU 5416, 1,3-Dihydro-3-[(3,5-dimethyl-1H-pyrrol-2-yl)methylene]-2H-indol-2-one] |  |  |  |  |  | 85 to 115 | 85 to 115 | 85 to 115 |  | 50 to 85 |  |  |  |  | edema or other phenotype in compound-treated Xenopus embryos/tadpoles (in words) ([1]; 20 μM, 1% DMSO, treatment from stage 31): causing lethality; scored in the phenotypic Xenopus screens ([1]; 20 μM): active; Lethality (NF) ([1]; compounds causing lethality, 20 μM, 1% DMSO, treatment from stage 31, Nieuwkoop & Faber stage): 37/38; ISV phenotype ([2]; in vivo): impaired; PCV phenotype ([2]; in vivo): normal; VVN phenotype ([2]; in vivo): hypoplastic; blood vessel development phenotype (apj expression, in words) ([2]; in vivo): block ISV outgrowth; effect on LEC tube formation (in words) ([6]; 1 μM in 0.1% DMSO): preferentially blocked tube formation in LEC rather than HUVEC cultures |
| CC(C)COC(=O)OCN1C(=O)CN(CCN2CC(=O)N(COC(=O)OCC(C)C)C(=O)C2)CC1=O [Sobuzoxane, 4,4′-(1,2-Ethanediyl)bis(1-isobutoxycarbonyloxymethyl-2,6-piperazinedione)] | 47 NF |  | 47 embryonic stages according to Nieuwkoop and Faber (NF) | 45 embryonic stages according to Nieuwkoop and Faber (NF) | 41/42 | 115 to 150 | 115 to 150 | 85 to 115 | 85 to 115 | 85 to 115 | 85 to 115 |  |  |  | Type of edema Proctodeal ([1]; embryonic stage): 45 embryonic stages according to Nieuwkoop and Faber (NF); Type of edema Pronephric ([1]; embryonic stage): 41/42; Type of edema Periocular ([1]; embryonic stage): 45* embryonic stages according to Nieuwkoop and Faber (NF); lymph vessel development phenotype (vegfr3 expression, in words) [2]: discontinuatous, dysplastic lymphatic vessels; Blood vessel phenotype ([2]; Xenopus embryos): normal; ALH phenotype ([2]; Xenopus embryos): dysplastic; ALS phenotype ([2]; Xenopus embryos): dysplastic; PLV phenotype ([2]; Xenopus embryos): hypoplastic; HUVEC proliferation ([3]; 10 μM in 0.1% DMSO, 48 hours): + (+, moderate promotion (>115-150% of control).); LEC proliferation ([4]; 10 μM in 0.1% DMSO, 48 hours): + (+, moderate promotion (>115-150% of control).) |
| N#CC(=Cc1ccc(O)c(O)c1)C(=O)Nc1ccccc1 [Tyrphostin AG 494, N-Phenyl-3,4-dihydroxybenzylidenecyanoacetamide] | 40 NF | 39 embryonic stages according to Nieuwkoop and Faber (NF) | 40 embryonic stages according to Nieuwkoop and Faber (NF) |  |  | 85 to 115 | 85 to 115 | 85 to 115 |  | 50 to 85 |  | impaired | hypoplastic | hypoplastic | effect on LEC tube formation (in words) ([6]; 1 μM in 0.1% DMSO): preferentially blocked tube formation in LEC rather than HUVEC cultures |
| COc1cc2ncnc(Nc3cccc(Cl)c3)c2cc1OC [Tyrphostin AG 1478, N-(3-Chlorophenyl)-6,7-dimethoxy-4-quinazolinamine] | 46 NF |  | 46 embryonic stages according to Nieuwkoop and Faber (NF) | 45 embryonic stages according to Nieuwkoop and Faber (NF) |  |  |  |  |  |  |  |  |  |  | scored in the phenotypic Xenopus screens ([1]; 20 μM): active; Type of edema Periocular ([1]; embryonic stage): 45 embryonic stages according to Nieuwkoop and Faber (NF); Cardiac phenotype ([1]; embryonic stage, ¶ = the heart chambers were enlarged): 45¶ embryonic stages according to Nieuwkoop and Faber (NF); recovery as antiangiogenic compound in the transgenic zebrafish screen [7]: recovery |
| CN(C)c1ccc(O)c2c1C[C@H]1C[C@H]3[C@H](N(C)C)C(O)=C(C(N)=O)C(=O)[C@@]3(O)C(O)=C1C2=O [minocycline hydrochloride] |  |  |  |  |  |  |  |  |  |  |  |  |  |  | penetration of embryos [7]: poorly penetrate embryos |
| O=C1CCC(N2C(=O)c3ccccc3C2=O)C(=O)N1 (centres unmarked) [thalidomide] |  |  |  |  |  |  |  |  |  |  |  |  |  |  | penetration of embryos [7]: poorly penetrate embryos |
